Data taken from patent US11459330B2, “Substituted bicyclic heterocyclic compounds as PRMT5 inhibitors” (LUPIN LIMITED, priority 2017, dated 2022).

How the values were obtained:
Z-138 cells [1] = experiment: SDMA inhibition assay; format: cell-based; conditions: Homo sapiens, 48 h, activity range 1.1 nM to 50 nM
Procedure: SDMA Inhibition Assay Protocol Z-138 cells (ATCC, CRL-3001™) were seeded at a density of 1 million cells/well in transparent, flat bottomed tissue culture grade 48-well plates. Cells were treated with various concentration of test compounds for a period of 48 h. Cell lysate was prepared using 1×CST Lysis buffer (Cell Signaling Technology, USA) and 500 ng/well/50 μL of lysate in pH 9.6 carbonate buffer was coated on 96-well Maxisorb plate and incubated overnight at 4° C. The plate was washed twice in 1×PBS containing 0.05% Tween 20 and blocked in 1% BSA for 1 h at ambient temperature. Further, the plate was incubated first with primary antibody (anti-SDMA antibody; CST #13222s) at ambient temperature for 2 h and then with HRP-conjugated secondary antibody at ambient temperature for 1 h with 2 intermittent washing steps in between.
For luminiscence based detection, HRP substrates (substrate A+substrate B in a 1:1 proportion) were added followed by luminiscence reading after 30 min in Synergy™ 2 reader (Biotek, USA).
For absorbance based detection, TMB substrate was added followed by addition of STOP solution (2N H2SO4) post colour development and absorbance ([…]) was measured in Synergy™ 2 reader (Biotek, USA). % inhibition of SDMA was calculated relative to the vehicle control samples containing media with 0.1% DMSO alone as per the formula below. (Avg. of Untreated Control−Avg. of Test)×100 Avg. of Untreated Control
(§1) The IC50 values of individual compounds were calculated with Non Linear Regression Analysis using Graph Pad Prism (Graph Pad software, Inc, USA).

PANC-1 cells = experiment: Anti-cancer assay (Panc-1), cell viability CellTiterGlo; format: cell-based; conditions: Homo sapiens, PANC-1, 168 h, 7 days
Procedure: (§2) Anticancer Activity Assay
(§3) Z-138 cells were seeded at a density of 2000-3000 cells per well in culture media (IMDM+10% FBS). PANC-1 (ATCC, CRL-1469™) and MIA PaCa-2 (ATCC, CRL-1420™) cells were seeded at a density of 200-300 cells per well in culture media (DMEM+10% FBS). Cells were seeded in opaque, flat bottomed tissue culture grade 96-well plates and Z-138 cells (suspension) were seeded and treated on the same day with various concentrations of test compounds. PANC-1 and MIA PaCa-2 cells, being adherent, were kept for overnight settlement at standard cell culture conditions (37° C., 5% CO2). On the following day, cells were treated with various concentrations of test compounds. Cells were treated with test compounds for a period of 96 h, 7 days and 10 days, for Z-138 cells, PANC-1 cells and MIA PaCa-2 cells, respectively. Cell viability was assessed using CellTiterGlo™ (Promega, USA) as per manufacturer's instructions. Relative Light Units (RLU) were read in Synergy™ 2 reader (Biotek, USA). The assay measures cellular ATP as an indicator of cell viability. RLU is proportional to the number of viable cells in the respective well.
(§4) % inhibition of cell viability was calculated relative to the vehicle control samples containing media with 0.1% DMSO alone as per the formula below. (Avg. of Untreated Control−Avg. of Test)×100 Avg. of Untreated Control
as §1
Anti-Cancer Assay (Panc-1)

PRMT5:MEP50 = PRMT5:MEP50 (Homo sapiens, UniProt O14744); experiment: PRMT5 biochemical HTRF assay (Biochemical Assay Protocol 1 / 2); conditions: biotinylated H4R3 substrate, 1 μM SAM, protocol 1 or 2 not given, activity range 300 pM to 950 pM, read-out: IC50 (PRMT5 inhibition), activity range
PRMT5:MEP50, sequence (O14744 whole entry): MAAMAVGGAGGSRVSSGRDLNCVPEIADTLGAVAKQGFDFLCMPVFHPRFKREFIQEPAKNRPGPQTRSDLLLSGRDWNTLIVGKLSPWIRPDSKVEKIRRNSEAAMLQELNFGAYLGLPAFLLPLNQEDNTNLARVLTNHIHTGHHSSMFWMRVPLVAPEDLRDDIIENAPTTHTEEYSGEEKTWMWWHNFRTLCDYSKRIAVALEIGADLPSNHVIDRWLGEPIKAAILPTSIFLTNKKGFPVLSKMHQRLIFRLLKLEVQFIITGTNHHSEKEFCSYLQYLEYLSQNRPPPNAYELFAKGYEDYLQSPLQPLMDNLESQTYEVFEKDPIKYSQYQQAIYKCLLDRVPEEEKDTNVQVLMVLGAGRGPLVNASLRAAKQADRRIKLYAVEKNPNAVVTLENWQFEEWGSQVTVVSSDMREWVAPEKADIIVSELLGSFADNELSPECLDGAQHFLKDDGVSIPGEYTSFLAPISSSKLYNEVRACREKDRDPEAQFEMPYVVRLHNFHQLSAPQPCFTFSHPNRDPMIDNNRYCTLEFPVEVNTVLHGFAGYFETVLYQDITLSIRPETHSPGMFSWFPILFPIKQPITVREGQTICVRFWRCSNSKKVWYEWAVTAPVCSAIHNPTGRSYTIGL
PRMT5:MEP50, sequence (Q9BQA1 whole entry partner): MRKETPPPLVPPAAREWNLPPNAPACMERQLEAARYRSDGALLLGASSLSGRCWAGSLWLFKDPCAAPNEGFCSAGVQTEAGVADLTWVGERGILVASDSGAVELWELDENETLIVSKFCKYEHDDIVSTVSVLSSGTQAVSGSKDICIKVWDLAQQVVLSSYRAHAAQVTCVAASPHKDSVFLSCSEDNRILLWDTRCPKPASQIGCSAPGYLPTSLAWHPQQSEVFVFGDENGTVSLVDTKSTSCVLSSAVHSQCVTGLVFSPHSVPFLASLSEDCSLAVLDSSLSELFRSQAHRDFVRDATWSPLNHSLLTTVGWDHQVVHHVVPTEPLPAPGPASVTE
Procedure: Biochemical Assay Protocol 1
(§5) Inhibitory effect of compounds on PRMT5 was assessed using HTRF detection technology in biochemical assay. Biotinylated H4R3 (residues 1-21) was used as a substrate. Compounds were pre-incubated with 15-25 ng PRMT5:MEP50 per well of a 384-well plate for 30 min at room temperature in the assay buffer containing 20 mM Bicine, pH 7.6, 25 mM NaCl, 2 mM DTT, 0.01% Chicken albumin and 0.01% Tween-20. Reaction was initiated by adding 1 μM of SAM and 50 nM biotinylated H4R3. Total assay volume was 15 μL. Reaction was continued for 120 min at room temperature. Then detection solution containing Streptavidin-Eu cryptate, anti-rabbit IgG-XL-665, Histone H4R3 Dimethyl Symmetric (H4R3me2s) Polyclonal Antibody, all prepared in HTRF detection buffer was added and further incubated for 30 min at room temperature. HTRF signal was recorded in PHERAStar microplate reader. Ratio of signal obtained at 665 nm and 620 nm was used to compute the percent inhibition of compound as follows % Inhibition=100−((Test Ratio−Negative control Ratio)/(Positive control Ratio−Negative control Ratio)*100) where Positive control=PRMT5+SAM+H4R3 Negative control=PRMT5+H4R3 Biochemical Assay Protocol 2
as §5, with “2.5” for “15-25”, “4 h” for “120 min”, “control=PRMT5+H4R3” for “control=PRMT5+H4R3 Biochemical Assay Protocol 2”

Z-138 cells [2] = experiment: Anti-cancer assay (Z-138), cell viability CellTiterGlo; format: cell-based; conditions: Homo sapiens, 96 h, activity range, lower bound in pM, upper bound in nM
Procedure: as §2, §3, §4, §1
Anti-Cancer Assay (Z-138)

[3] = activity range, lower bound in pM, upper bound in nM

IC50 (Z-138 cells [1]) | IC50 (PANC-1 cells; activity range 20 nM to 100 nM) | IC50 (PRMT5:MEP50) | IC50 (Z-138 cells [2]) | IC50 (PANC-1 cells; [3]) | Structure (SMILES)
1.1 to 50 nM | 20000 to 100000 pM |  |  |  | CC(Cc1cc(F)c2cc(Cl)c(N)nc2c1)C1=C[C@@H](n2ccc3c(N)ncnc32)[C@H](O)[C@@H]1O (single isomer, unassigned) [Compound-33a]
1.1 to 50 nM |  | 0.3 to 0.95 nM |  |  | Cc1ncnc2c1ccn2[C@@H]1C=C(C(C)Cc2cc(F)c3cc(Cl)c(N)nc3c2)[C@@H](O)[C@H]1O (single isomer, unassigned) [Compound-35b]
1.1 to 50 nM |  | 0.3 to 0.95 nM | 101 to 1000 pM |  | CC(Cc1ccc2cc(Br)c(N)nc2c1)[C@@]12C[C@@H]1[C@@H](n1ccc3c(N)ncnc31)[C@H](O)[C@@H]2O (single isomer, unassigned) [Compound-76a]
 |  |  | 101 to 1000 pM | 300 to 20000 pM | CC(Cc1ccc2cc(Br)c(N)nc2c1)C1=C[C@@H](n2ccc3c(N)ncnc32)[C@H](O)[C@@H]1O (stereo partly drawn) [7b, (1S,2R,5R)-3-(1-(2-Amino-3-bromoquinolin-7-yl)propan-2-yl)-5-(4-amino-7H-pyrrolo[2,3-d]pyrimidin-7-yl)cyclopent-3-ene-1,2-diol]
 |  |  | 101 to 1000 pM |  | CC(Oc1cc(F)c2cc(Cl)c(N)nc2c1)C1=C[C@@H](n2ccc3c(N)ncnc32)[C@H](O)[C@@H]1O (stereo partly drawn) [Compound-20b, (1S,2R,5R)-3-(1-((2-amino-3-chloro-5-fluoroquinolin-7-yl)oxy)ethyl)-5-(4-amino-7H-pyrrolo[2,3-d]pyrimidin-7-yl)cyclopent-3-ene-1,2-diol]
1.1 to 50 nM |  | 0.3 to 0.95 nM |  | 300 to 20000 pM | Nc1nc2cc(CCC3=C[C@@H](n4ccc5c(N)ncnc54)[C@H](O)[C@@H]3O)c(F)cc2cc1Cl [Compound-25, (1S,2R,5R)-3-(2-(2-amino-3-chloro-6-fluoroquinolin-7-yl)ethyl)-5-(4-amino-7H-pyrrolo[2,3-d]pyrimidin-7-yl)cyclopent-3-ene-1,2-diol]
 |  | 0.3 to 0.95 nM | 101 to 1000 pM |  | Nc1nc2c(F)c(CCC3=C[C@@H](n4ccc5c(N)ncnc54)[C@H](O)[C@@H]3O)ccc2cc1Cl [Compound-26, (1S,2R,5R)-3-(2-(2-amino-3-chloro-8-fluoroquinolin-7-yl)ethyl)-5-(4-amino-7H-pyrrolo[2,3-d]pyrimidin-7-yl)cyclopent-3-ene-1,2-diol]
1.1 to 50 nM |  |  |  |  | Cn1cc(-c2ncnc3c2ccn3[C@@H]2C=C(CCc3cc(F)c4cc(Cl)c(N)nc4c3)[C@@H](O)[C@H]2O)cn1 [Compound-32, (1S,2R,5R)-3-(2-(2-amino-3-chloro-5-fluoroquinolin-7-yl)ethyl)-5-(4-(1-methyl-1H-pyrazol-4-yl)-7H-pyrrolo[2,3-d]pyrimidin-7-yl)cyclopent-3-ene-1,2-diol]
 | 20000 to 100000 pM |  | 101 to 1000 pM |  | Cc1ncnc2c1ccn2[C@@H]1C=C(CCc2cc(F)c3cc(Cl)c(N)nc3c2)[C@@](C)(O)[C@H]1O [Compound-39, (1S,2R,5R)-3-(2-(2-amino-3-chloro-5-fluoroquinolin-7-yl)ethyl)-2-methyl-5-(4-methyl-7H-pyrrolo[2,3-d]pyrimidin-7-yl)cyclopent-3-ene-1,2-diol]
 |  | 0.3 to 0.95 nM |  | 300 to 20000 pM | Nc1ccc2c(F)cc(CCC3=C[C@@H](n4ccc5c(N)ncnc54)[C@H](O)[C@@H]3O)cc2n1 [Compound-47, (1S,2R,5R)-3-(2-(2-amino-5-fluoroquinolin-7-yl)ethyl)-5-(4-amino-7H-pyrrolo[2,3-d]pyrimidin-7-yl)cyclopent-3-ene-1,2-diol]
 |  | 0.3 to 0.95 nM |  | 300 to 20000 pM | Nc1nc2cc(CC[C@@]34C[C@@H]3[C@@H](n3ccc5c(N)ncnc53)[C@H](O)[C@@H]4O)ccc2cc1Cl [Compound-61, (1R,2R,3S,4R,5S)-1-(2-(2-Amino-3-chloroquinolin-7-yl)ethyl)-4-(4-amino-7H-pyrrolo[2,3-d]pyrimidin-7-yl)bicyclo[3.1.0]hexane-2,3-diol]
1.1 to 50 nM | 20000 to 100000 pM |  | 101 to 1000 pM |  | Nc1nc2cc(CC[C@@]34C[C@@H]3[C@@H](n3ccc5c(N)ncnc53)[C@H](O)[C@@H]4O)c(F)cc2cc1Cl [Compound-62, (1R,2R,3S,4R,5S)-1-(2-(2-Amino-3-chloro-6-fluoroquinolin-7-yl)ethyl)-4-(4-amino-7H-pyrrolo[2,3-d]pyrimidin-7-yl) bicyclo[3.1.0]hexane-2,3-diol]
1.1 to 50 nM |  |  | 101 to 1000 pM | 300 to 20000 pM | Nc1nc2cc(CC[C@@]34C[C@@H]3[C@@H](n3ccc5c(N)ncnc53)[C@H](O)[C@@H]4O)c(F)cc2cc1Br [Compound-64, (1R,2R,3S,4R,5S)-1-(2-(2-amino-3-bromo-6-fluoroquinolin-7-yl)ethyl)-4-(4-amino-7H-pyrrolo[2,3-d]pyrimidin-7-yl)bicyclo[3.1.0]hexane-2,3-diol]
 |  | 0.3 to 0.95 nM |  | 300 to 20000 pM | Nc1nc2cc(CC[C@@]34C[C@@H]3[C@@H](n3ccc5c(N)ncnc53)[C@H](O)[C@@H]4O)ccc2cc1Br [Compound-73, (1R,2R,3S,4R,5S)-1-(2-(2-Amino-3-bromoquinolin-7-yl)ethyl)-4-(4-amino-7H-pyrrolo [2,3-d]pyrimidin-7-yl)bicyclo[3.1.0]hexane-2,3-diol]
